The text below walks through data of patent US7605168B2 (Plexxikon, Inc., priority 2004, dated 2009).

The target of assay [1] is T1, PDE4B2: full-length human PDE4B2 isozyme (Homo sapiens, UniProt Q07343).
T1 construct: made in house; host or cells: baculovirus infected insect cells (pFastBacHT)
Description: PDE4 IC50 determination by Scintillation Proximity Assay (SPA), full-length PDE4B2. It counts as biochemical. The settings on record: cell lysate, [3H]cAMP SPA. An outline of the steps:
(§1)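 Unpurified enzyme from cell lysates (PDE4B2 2.5 μl, PDE4D5 0.083 μl of 50% glycerol stock/ml) hydrolysing [3H]cAMP in 50 mM Tris pH 7.5, 8.3 mM MgCl, 1.7 mM EGTA, 0.01% BSA, 30 min at 30 °C. Stopped with yttrium silicate SPA beads in 18 mM ZnSO4; bead-bound [3H]AMP counted. IC50 by non-linear regression.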

The target in assay [2] is T2, PDE4D5: full-length human PDE4D5 isozyme (Homo sapiens, UniProt Q08499).
T2 construct: made in house; host or cells: baculovirus infected insect cells (pFastBacHT)
T2 sequence (Q08499 with tags, fused parts or gaps isoform Q08499-6): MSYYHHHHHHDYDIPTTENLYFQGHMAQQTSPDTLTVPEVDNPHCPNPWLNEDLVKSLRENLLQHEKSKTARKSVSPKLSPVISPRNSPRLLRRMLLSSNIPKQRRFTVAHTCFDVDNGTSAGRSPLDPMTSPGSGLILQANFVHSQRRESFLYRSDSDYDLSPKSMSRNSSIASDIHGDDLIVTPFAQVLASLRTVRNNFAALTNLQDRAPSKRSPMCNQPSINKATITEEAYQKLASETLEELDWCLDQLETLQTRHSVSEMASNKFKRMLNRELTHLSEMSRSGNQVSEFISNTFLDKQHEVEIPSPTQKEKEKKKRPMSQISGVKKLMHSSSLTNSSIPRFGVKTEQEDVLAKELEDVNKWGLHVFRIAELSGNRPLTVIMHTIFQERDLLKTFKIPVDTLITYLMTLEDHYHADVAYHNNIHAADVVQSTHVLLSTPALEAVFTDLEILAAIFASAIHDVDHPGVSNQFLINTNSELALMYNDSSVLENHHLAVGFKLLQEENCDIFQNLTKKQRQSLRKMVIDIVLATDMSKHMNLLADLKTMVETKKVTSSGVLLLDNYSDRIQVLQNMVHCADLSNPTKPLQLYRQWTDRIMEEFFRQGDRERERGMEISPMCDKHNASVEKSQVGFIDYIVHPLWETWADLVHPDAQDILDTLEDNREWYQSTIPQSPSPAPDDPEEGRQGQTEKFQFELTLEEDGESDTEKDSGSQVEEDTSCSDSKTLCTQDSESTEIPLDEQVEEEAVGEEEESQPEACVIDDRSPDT
Description: PDE4 IC50 determination by Scintillation Proximity Assay (SPA), full-length PDE4D5. The class given is biochemical. The settings on record: cell lysate, [3H]cAMP SPA. An outline of the steps:
as §1

Assay [3] concerns TNF-α release from whole blood cultures stimulated with LPS. Put plainly: IC50 by TNF alpha production upon stimulation of whole blood cultures with LPS. It counts as cell-based. As to conditions: human whole blood (buffy coat) culture, 100 ng/ml LPS, 4 hours; read-out: h TNFα IC50. An outline of the steps:
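Human buffy coat, diluted with 7 volumes of RPMI/2.5% heat-inactivated FBS, was preincubated with compound (8-point 1:3 series) for 1 h at 37 °C. It was then stimulated with 100 ng/ml LPS (final) for 4 h. Supernatant TNF-α was measured by sandwich ELISA at 450 nm, and IC50 was set between DMSO (0%) and PDE4-inhibitor (100%) controls.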

Assay [4] relates to TNFα levels in serum of LPS-challenged rats. Put plainly: Rat inhibition studies: serum TNFα after iv LPS challenge. The class given is in vivo. As to conditions: 5 mg/kg po, LPS 0.1 mg/kg iv 2 h after dosing, percent decrease in serum TNFα versus vehicle, read-out: % inhibition r TNFα. As for the experimental part: All studies were done with male rats CD (SD) IGS BR (Crl) (Charles River, France), which were grouped in to 5 animal groups.
At the end of the acclimatization period, the non-fasted rats were weighed, individually identified on the tail with a permanent marker and administered by oral (po) or interperitoneal (ip) route with either vehicle, reference or test compound in a volume of 10 mL/kg adapted to the body weight. The animals were gathered in groups of 5 animals in a polystyrene labeled cage with sawdust covered floors. 2-hours after vehicle, reference or test substance administration, rats received an intravenous (iv) injection of 0.1 mg/kg LPS in a volume of 1 mL/kg of body weight. 2 h after LPS challenge (or as indicated in Tables 3B and 4B), blood samples were collected into tubes without anticoagulant by retro-orbital puncture under gas (isoflurane) anesthesia. Samples were allowed to clot at room temperature for 5 to 10 min then put on ice until there were prepared by centrifugation (6000×g for 3 min at 4° C.) and stored at −20° C. until use. TNFα levels were measured in serum samples in duplicate by ELISA technique according to the manufacturer's procedure (Rat TNFα kit Quantikine M (RTA00, R&D System, France)). Data are reported as percent decrease in observed TNFα levels versus TNFα levels observed for vehicle dosed animal groups.

T1 sequence (Q07343 with tags, fused parts or gaps isoform Q07343-2): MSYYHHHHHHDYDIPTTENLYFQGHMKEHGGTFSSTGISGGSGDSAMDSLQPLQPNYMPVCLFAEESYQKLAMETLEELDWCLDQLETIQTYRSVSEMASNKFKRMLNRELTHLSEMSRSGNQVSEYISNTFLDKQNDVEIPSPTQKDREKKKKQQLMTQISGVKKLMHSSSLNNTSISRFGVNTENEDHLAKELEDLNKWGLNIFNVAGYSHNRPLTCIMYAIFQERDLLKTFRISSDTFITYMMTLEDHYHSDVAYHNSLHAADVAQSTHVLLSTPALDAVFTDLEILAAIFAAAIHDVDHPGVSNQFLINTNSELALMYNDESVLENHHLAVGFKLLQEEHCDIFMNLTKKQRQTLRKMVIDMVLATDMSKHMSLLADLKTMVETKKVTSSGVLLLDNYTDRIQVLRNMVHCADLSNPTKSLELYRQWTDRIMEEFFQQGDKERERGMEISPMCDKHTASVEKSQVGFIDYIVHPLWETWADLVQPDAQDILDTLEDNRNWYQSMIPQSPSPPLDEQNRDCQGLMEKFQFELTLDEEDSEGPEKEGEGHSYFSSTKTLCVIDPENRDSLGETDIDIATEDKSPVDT

Turning to `CCOc1ccc2ccccc2c1C(=O)n1cc(-c2ccc(OC)c(OC)c2)c2cccnc21` [Compound 52, [3-(3,4-Dimethoxy-phenyl)-pyrrolo[2,3-b]pyridin-1-yl]-(2-ethoxy-naphthalen-1-yl)-methanone], the IC50 in assay [1] was less than 10 µM; in assay [2], less than 10 µM; in assay [3], not above 10 µM. Also, in assay [4], the inhibition in vivo at 5 mg/kg was not below 20%.

For the molecule `CCOc1ccccc1C(=O)n1cc(-c2ccc(OC)c(OC)c2)c2cccnc21` [Compound 61, [3-(3,4-Dimethoxy-phenyl)-pyrrolo[2,3-b]pyridin-1-yl]-(2-ethoxy-phenyl)-methanone-amide], the figures for the IC50 in assay [1], in assay [2] and in assay [3] were less than 10 µM, less than 10 µM and not above 10 µM, respectively. For the same molecule, the inhibition in vivo at 5 mg/kg in assay [4] was not below 20%.
